Values joined by “and” are separate entries in the source; they are usually repeats but may differ in a detail not shown here. Equal values may be shown once.

Series [1] concerns isolated Langendorff-perfused rat heart. Kind of series: Isolated perfused heart according to Langendorff: perfusion pressure and wash-out score (C-1.2). Particulars: comparative example 11 300 nmol/l, others 100 nmol/l, n=6. The protocol:
Male Wistar rats (strain HsdCpb:WU) with a body weight of 200-250 g were anaesthetized with Narcoren® (100 mg/kg). The thorax was opened and the heart was then exposed, excised and connected to a Langendorff apparatus by placing a cannula into the aorta. The heart was perfused retrogradely at 9 ml/min at constant flow with a Krebs-Henseleit buffer solution (gassed with 95% O2 and 5% CO2, pH 7.4, 35° C.; composition in mmol/l: NaCl 118; KCl 3; NaHCO3 22; KH2PO4 1.2; MgSO4 1.2; CaCl2 1.8; Glucose 10; Na pyruvate 2). A pressure transducer registered the perfusion pressure in the perfusion system. The left ventricular pressure (LVP) was measured using a second pressure transducer connected to a water-filled balloon which was inserted into the left ventricle via the left atrium. The end diastolic pressure was initially set to 8 mm Hg by adjusting the volume of the balloon. The hearts were spontaneously beating. The signals from the pressure transducer were amplified, registered by a personal computer (Powerlab Chart software, ADInstruments).
Then the hearts were perfused for a further 120 min without the test substance (wash-out phase). The reversibility of the effect (wash-out score) was calculated as a percentage of the PP recovery after 60 min of washout related to the maximum drop of PP induced by the test compound. The wash-out score obtained in this manner was taken as a measure for the residence time of the test substance at the site of action.

The test system of series [2] is thromboxane analog U46619 induced PAH in minipigs. Kind of series: PAH minipig model: comparison with and on top of standard of care (bosentan, sildenafil, riociguat). It is filed as in vivo, Göttingen minipig. The text has this: Efficacy of inhaled comparative example 11 was compared with systemically applied bosentan, sildenafil and riociguat (see FIG. 53a) in the PAH minipig model. […] Therefore inhaled application of comparative example 11 offers clear benefits as systemic effects are avoided, compared to standard of care.

Series [3] can be described thus: Caco-2 permeability test (C-5.1). The series is classed as in vitro ADME, human. Particulars: human, Caco-2 (2 μM). The procedure: The in vitro permeation of a test compound across a Caco-2 cell monolayer is a well-established assay system to predict the permeability from the gastro-intestinal tract (1). The permeability of the compounds of the present invention in such Caco-2 cells was determined as described below:
Human caco-2 cells were seeded on 24-well insert plates and were allowed to grow for 14-16 days. For permeability studies, the test compounds were dissolved in DMSO and diluted to the final test concentration of 2 μM with transport buffer [Hanks' Buffered Salt Solution, Gibco/Invitrogen, further supplemented with glucose and HEPES]. For determination of the apical to basolateral permeability (PappA-B), the test compound solution was added to the apical side of the cell monolayer and transport buffer to the basolateral side of the monolayer; for determination of the basolateral to apical permeability (PappB-A), the test compound solution was added to the basolateral side of the cell monolayer and transport buffer to the apical side of the monolayer. Samples were taken from the donor compartment at the beginning of the experiment to confirm mass balance. After an incubation of 2 h at 37° C., samples were taken from both compartments. Samples were analyzed by LC-MS/MS, and the apparent permeability coefficients were calculated. Lucifer Yellow permeability was assayed for each cell monolayer to ensure cell monolayer integrity, and the permeability of Atenolol (low permeability marker) and Sulfasalazine (marker for active excretion) was determined for each batch as quality control.
A general note: Caco-2 cells form a polarised layer with tight junctions and transporters.

Series [4] in a line: Protein binding via ultrafiltration assay (comparative example 2). The series is classed as in vitro ADME. The text has this: For this assay, filter membranes of 30 kDa pore size were used to separate plasma and protein free ultrafiltrate. The driving force for filtration was applied by centrifugation. Prior to protein binding studies, the adsorption (recovery) of the test compound to the ultra-filtration device and the ability of the test compound to pass the filter membrane was checked by filtration of the test compound dissolved in buffer at four concentrations. Sufficient stability of the test compound and an almost complete recovery (≥90% of the actual amount of compound used for the experiment) was a prerequisite for the use of the ultrafiltration method. The amount of organic solvent added to the plasma may not exceed 2% of the total incubation volume. Blood samples were collected in heparinized tubes either pooled (all species except human and monkey) or individually (human and monkey) and were used within 24 h for incubation experiments in blood. Plasma was prepared by centrifugation of the heparinized blood samples. Plasma was stored at −15° C. until use. Plasma stability, Compound recovery, unspecific binding to the membrane and the test device as well as partitioning between blood cells and plasma were controlled. The substance-associated radioactivity was determined by liquid scintillation counting. With this analytical method, it is not possible to distinguish between unchanged substance and radioactive metabolites. For details of the radioanalytical methods and the work up of the samples see Goeller et al. (3). A description of the ultrafiltration method in general was published by Zhang et al. In 2012 (4).

Series [5] concerns pulmonary vascular resistance (PVR). Particulars: single administration, historical comparison; cited from earlier work.
[6] abbreviates: Riociguat 3 μg/kg/h systemically applied, % change per animal.

The compound `COC(=O)N(C)c1c(N)nc(-c2nn(Cc3ccccc3F)c3ncccc23)nc1N` [comparative example 2, Methyl-4,6-diamino-2-[1-(2-fluorobenzyl)-1H-pyrazolo[3,4-b]pyridine-3-yl]-5-pyrimi-dinyl(methyl)carbamate, reference compound] registered a wash-out score in series [1] (PP recovery after 60 min of washout related to maximum drop of PP) of 98%. In addition, the “effect on perfusion pressure (PP)” value in series [1] was “pronounced reduction of perfusion pressure”. For the same compound, the BP decrease % in series [2] (setting [6]) is −0.3% and −8.8% and −10.9%. The PAP decrease % in series [2] (setting [6]) is −9.1% (2×) and −16.8%. Moreover, the “effects on PAP and BP” value in series [2] (bosentan 1 mg/kg, sildenafil 300 μg/kg/h, riociguat 3 μg/kg/h systemically, comparative example 11 30 and 100 μg/kg inhaled) is “decreases in both PAP and BP”. Besides, the efflux ratio (commonly the permeability from basolateral to apical divided by that in the opposite direction, in the common usage) at 2 h, 2 μM in series [3] was determined as 11 ± 3.3. Also, the Papp A→B at 2 h, 2 μM in series [3] (concentration per compound 2.0 or 2.4 μM, read-out: Papp A-B (mean +/− SD)) amounted to 3.5 ± 0.84 ×10⁻⁶ cm/s. Also, the Papp B→A at 2 h, 2 μM in series [3] (concentration per compound 2.0 or 2.4 μM, read-out: Papp B-A (mean +/− SD)) was determined as 36.7 ± 7.5 ×10⁻⁶ cm/s. Moreover, the results for the fraction unbound in series [4] (Dog Beagle plasma), in series [4] (Human (male) plasma) and in series [4] (Rat Wistar plasma) were 0.171, 0.0497 and 0.157, respectively.

For the compound `CCCCC[C@H](O)CC[C@@H]1[C@H]2Cc3cccc(OCC(=O)O)c3C[C@H]2C[C@H]1O` [Treprostinil], the “mean change in PVR from baseline” value in series [5] is −30%.

The values are drawn from patent publication US12138256B2, “Treatment of cardiopulmonary disorders” (Bayer Aktiengesellschaft, priority 2021, dated 2024).
